Test results reported in US10227586B2, “Genome-originated artificial ncRNA expression library and method of preparing the same” (KOREA ADVANCED INSTITUTE OF SCIENCE AND TECHNOLOGY, priority 2016, dated 2019).
Values after ≈ are worked out from the molar mass of the structure shown.

Assays:
E. coli YHP05 strain = test: MIC measurement to cinnamaldehyde of E. coli; format: cell-based; conditions: LB liquid medium, 37° C., 16 hrs
E. coli MG1655 strain = test: microbe, parasite or virus in culture; conditions: Escherichia coli, MG1655, 16 h, read-out: phenol concentration at which growth was totally inhibited (MIC)
E. coli YHP05 = test: Screening of transformed E. coli living in cinnamaldehyde MIC (artificial ncRNA expression); format: cell-based; conditions: transformed E. coli YHP05, LB medium comprising 350 ug/ml cinnamaldehyde, 1 mM IPTG, 16 hrs
Protocol: In order to develop an artificial ncRNA to make E. coli survived at 300 ug/ml of cinnamaldehyde concentration, E. coli YHP05 was transformed by the plasmid library which can express genome-originated artificial ncRNA constructed in the Example 3-5, and after transformed ˜500,000 colonies were cultured for 16 hrs, they were diluted to 1:100 and cultured for 16 hrs again in a LB medium comprising 350 ug/ml cinnamaldehyde, 1 mM IPTG, and the result was shown in FIG. 6 and table 6.

## O=CC=Cc1ccccc1 [cinnamaldehyde]
E. coli YHP05 strain; 100 ug/ml cinnamaldehyde
  OD600: 3.08
E. coli YHP05 strain; 150 ug/ml cinnamaldehyde
  OD600: 2.74
E. coli YHP05 strain; 200 ug/ml cinnamaldehyde
  OD600: 2.25
E. coli YHP05 strain; 250 ug/ml cinnamaldehyde
  OD600: 0.341
E. coli YHP05 strain; 300 ug/ml cinnamaldehyde
  OD600: 0.091
E. coli YHP05 strain; 400 ug/ml cinnamaldehyde
  OD600: 0.083
E. coli YHP05 strain; 500 ug/ml cinnamaldehyde
  OD600: 0.062
E. coli YHP05 strain; Escherichia coli, YHP05STRAIN, read-out: cinnamaldehyde concentration at which cells were not grown (MIC)
  MIC: 300 µg/mL (≈ 2270 µM)

## Oc1ccccc1 [phenol]
E. coli MG1655 strain
  MIC: 20 mM (≈ 1880 µg/mL)

## clone 8: artificial ncRNA improving resistance to cinnamaldehyde, genome insert of SEQ ID NO: 19 (DNA AATCCCTCAATGATGCCTGGAATCGCTCTTTTA; expressed or natural sequence)
E. coli YHP05
  OD600: 0.32

## clone 9: artificial ncRNA improving resistance to cinnamaldehyde, genome insert of SEQ ID NO: 20 (DNA GGCGCTGCATCCGCGTTATAGCCGCGCCCAGTATGACCGGGTAATGGA; expressed or natural sequence)
E. coli YHP05
  OD600: 0.2403

B1: clone 6: artificial ncRNA improving resistance to cinnamaldehyde, genome insert of SEQ ID NO: 17 (nucleic acid)
DNA: TATTCATTGCTTCTACCCGTGCCTCGCTTTCTGTATTACGAAATTGTCCCAACACATGTGCCAGCCGATAAAAACCCAC
modifications: expressed or natural sequence
E. coli YHP05
  OD600: 0.2757

B2: clone 7: artificial ncRNA improving resistance to cinnamaldehyde, genome insert of SEQ ID NO: 18 (nucleic acid)
DNA: AACGCAGGGCGTTCGAAAGCAGGTTGCTTAGCGCCCGACGCAGCATCAGCGGATCGCCCGCGACCTGACACTTGTCGCCAACAAACCGCAACTCCACGCCGCGATCTTCCGCTAACGCCTCGAAAAAATCGAACACTTTGCCGACTTCATCCGCCAG
modifications: cinnamic aldehyde_reg_06
E. coli YHP05
  OD600: 0.411
